Data taken from patent publication US9637476B2, “Atrasentan mandelate salts” (AbbVie Inc., priority 2013, dated 2017).
Where “and” joins values, the source holds several entries; their conditions need not be identical. Equal values may be shown once. Where a name gives a salt, the structure may show the parent alone. Read-outs that look alike come from different tables or passages of the source. Marks after values point to notes of the source that are not given here. One block for each compound: values may come before it.

Key:
Format in all cases: physicochemical
[1] = Crystal morphology assessed by microscopy
[2] = Moisture sorption isotherm (DVS); details: 25° C.; as the relative humidity decreased below 10%
Experimental: A study was conducted to evaluate the moisture sorption isotherms of atrasentan hemi-sulfate salt (1:1 stoichiometry), monohydrate, and atrasentan S-mandelate salt (1:1 stoichiometry), anhydrate. A sample (about 5 mg to about 20 mg) of the powder to be tested was loaded onto the tared pan of a DVS Advantage dynamic gravimetric water sorption analyzer (Surface Measurement Systems Ltd, Alperton, United Kingdom). The moisture sorption isotherm for each sample was collected at 10% relative humidity intervals as the relative humidity was adjusted in the following manner: (a) 0% to 90% to 0% to 90% to 40% for the hemi-sulfate salt, and (b) 0% to 90% to 0% for the S-mandelate salt. For each step, the dm/dt criteria were 0.001% over 5 minutes with a minimum dm/dt time of 30 minutes and a maximum dm/dt of 120 minutes. Data was collected isothermally at 25° C. with a nitrogen flow rate of […]. The sample was maintained at 30% relative humidity and analyzed by PXRD. The moisture sorption isotherms generated for the hemi-sulfate and S-mandelate salt samples are shown in FIG. 6-A and FIG. 6-B, respectively.

[3] = Morphology and particle size distribution of the unmilled samples; details: for PARTICLE SIZE DISTRIBUTION D10 / PARTICLE SIZE DISTRIBUTION D50 / PARTICLE SIZE DISTRIBUTION D90: unmilled; for MORPHOLOGY: unmilled sample used for density measurement
[4] = Intrinsic dissolution rate as a function of chloride ion concentration; details: for IDR (intrinsic dissolution rate): pH 2.0 phosphate buffer, 37° C., 50 rpm; for linear regression intercept a of IDR = a + b × [Cl−] / linear regression slope b of IDR = a + b × [Cl−]: pH 2.0, [Cl−] 0 to 0.17 M
Experimental: (§1) About 100 mg of the sample tested was prepared by compressing the sample in a stainless steel die under 1100 pounds force with a dwell time of one minute to form a pellet. The die (diameter: 0.373 inch, area: 0.704 cm^2) containing the pellet was submerged in 250 mL of a phosphate buffer dissolution test medium having a pH of 2.0 and a chloride ion concentration of 0 M, 0.017 M, or 0.17 M. The medium was stirred by a paddle at 50 rpm and maintained at 37° C. To measure the concentration of the sample material in test medium, a fiber optic dip probe (μDiss Profile, pION
Inc) was used to monitor the UV absorbance as a function of time. The measured data are reported in Table 13-A below and are shown graphically in FIG. 5.
The intrinsic dissolution data reported in Table 13-A were further evaluated using linear regression analysis.

[5] = Oxidative stability (urea-H2O2 co-crystal, HPLC); details: for RECOVERED (%): solid exposed to urea-H2O2 co-crystal, 40° C., HPLC, individual samples 1-3; for RECOVERED (%) / AVERAGE (%) recovered / AVERAGE % (NORMALIZED): seven days; for AVERAGE (%) recovered / AVERAGE % (NORMALIZED): urea-H2O2, 40° C.; for AVERAGE (%) recovered: mean of samples 1-3; for AVERAGE % (NORMALIZED): sample average normalized to freezer blank average
Experimental: About 1 mg of each solid was placed in a 4 mL glass vial and about 10 mg of urea-H2O2 co-crystal was placed in another 4 mL vial. The two vials then were connected by a connector (Kontes connector, 13-425X13-425, apt NO 747205-1313) and left in an oven at 40° C. for seven days. Blank samples were prepared by placing about 1 mg of each compound in a 4 mL vial and then storing the vial in a freezer at about −20° C. for the same period of time. The oven samples and freezer blanks were analyzed at the same time by HPLC. The measured data are reported in Table II-B below and the normalized data from Table II-B are shown in a bar chart in FIG. 3.

[6] = Bulk density and tap density (USP <616>); details: unmilled; USP <616> Method I, 100 mL cylinder
Experimental: Bulk and tap density are measured following United States Pharmacopeia and National Formulary guidelines (USP <616>). Approximately 60 mL of each sample is added into a 100 mL graduated cylinder. The powder is carefully leveled without compacting, and the volume is read directly from the cylinder and used to calculate the bulk density according to the relationship: mass/volume. The cylinder containing the powder sample is then mechanically tapped using a VanKel Tap Density Tester (Model 50-1200, Varian, Inc., Palo Alto, Calif.) until there is no change in volume. The volume of the sample is then read and used in the calculation of tap density.
Bulk density and tap density were measured for samples of the following materials: (i) unmilled atrasentan hydrochloride salt having the morphology and particle size distribution listed below in Table 10; and (ii) unmilled atrasentan mandelate salt having the morphology and particle size distribution listed below in Table 10. […] Bulk density was measured in accordance with Bulk Density, Method I of United States Pharmacopeia and National Formulary Guidelines (USP <616>) except that a 100 mL cylinder was filled with the sample for the testing. Tap density was measured in accordance with Tapped Density, Method I of United States Pharmacopeia and National Formulary guidelines (USP <616>) except that a 100 mL cylinder was filled with the sample for the testing.

[7] = Intrinsic dissolution rate as a function of pH; details: for IDR (intrinsic dissolution rate): 37° C., 50 rpm, single runs
Experimental: as §1, with “of 2.0, 5.0,” for “of 2.0 and a chloride ion concentration of 0 M, 0.017 M,”, “or 7.4.” for “or 0.17 M.”, “in the” for “in test”, “pION Inc) was used to monitor the UV absorbance as a function of time. The measured data are reported in Table 12-A below and are shown graphically in FIG. 4.” for “pION”

Compound: CCCCN(CCCC)C(=O)CN1CC(c2ccc3c(c2)OCO3)C(C(=O)O)C1c1ccc(OC)cc1.Cl (stereo not drawn)
- CRYSTAL MORPHOLOGY [1]: Needle

Compound: CCCCN(CCCC)C(=O)CN1C[C@H](c2ccc3c(c2)OCO3)[C@@H](C(=O)O)[C@@H]1c1ccc(OC)cc1 [Parent, Anhydrate, (2R,3R,4S)-4-(1,3-benzodioxol-5-yl)-1-[2-(dibutylamino)-2-oxoethyl]-2-(4-methoxyphenyl)pyaolidine-3-carboxylic acid]
- CRYSTAL MORPHOLOGY [1]: Needle

Compound: Mandelate
- IDR (intrinsic dissolution rate) ([7]; pH 5.0 phosphate buffer): 2.1 × 10^−2 mg/min/cm^2 and 1.8 × 10^−2 mg/min/cm^2
- IDR (intrinsic dissolution rate) ([7]; pH 7.4 phosphate buffer): 1.1 × 10^−1 mg/min/cm^2 and 1.0 × 10^−1 mg/min/cm^2
- intrinsic dissolution rate compared with atrasentan parent ([7]; paired t-test, pH 2.0, 5.0, 7.4): statistically greater intrinsic dissolution rate
- PARTICLE SIZE DISTRIBUTION D10 [3]: 16 μm
- PARTICLE SIZE DISTRIBUTION D50 [3]: 49 μm
- PARTICLE SIZE DISTRIBUTION D90 [3]: 141 μm
- MORPHOLOGY [3]: Prismatic
- CRYSTAL MORPHOLOGY [1]: Prism
- IDR (intrinsic dissolution rate) ([4]; [Cl−] 0.0 M): 1.0 × 10^−1 (n = 1) mg/min/cm^2
- IDR (intrinsic dissolution rate) ([4]; [Cl−] 0.017 M): 1.0 × 10^−1 (n = 1) mg/min/cm^2
- IDR (intrinsic dissolution rate) ([4]; [Cl−] 0.17 M): 8.3 × 10^−2 (n = 3)** mg/min/cm^2
- sensitivity of intrinsic dissolution rate to chloride ion concentration compared with hydrochloride salt ([4]; linear regression slopes): less sensitive to chloride ion concentration
- linear regression intercept a of IDR = a + b × [Cl−] [4]: a1 = 0.1035
- linear regression slope b of IDR = a + b × [Cl−] [4]: b1 = −0.1222
- oxidative stability compared with atrasentan parent and hydrochloride salt ([5]; ANOVA of sample recovery proportion): greater oxidative stability
- RECOVERED (%) [5]: 82.40% and 80.67% and 83.11%
- AVERAGE (%) recovered [5]: 79.58%
- AVERAGE % (NORMALIZED) [5]: 99.30%
- BULK DENSITY [6]: 0.25 g/mL
- TAP DENSITY [6]: 0.40 g/mL

Compound: CCCCN.CCCCN(CCCC)C(=O)CN1CC(c2ccc3c(c2)OCO3)C(C(=O)O)C1c1ccc(OC)cc1 (stereo not drawn)
- CRYSTAL MORPHOLOGY [1]: Bar

Compound: CCCCN(CCCC)C(=O)CN1CC(c2ccc3c(c2)OCO3)C(C(=O)O)C1c1ccc(OC)cc1.O=C(O)C(O)c1ccccc1 (stereo not drawn)
- CRYSTAL MORPHOLOGY [1]: Prism

Further lines, with some results ahead:

- CRYSTAL MORPHOLOGY [1]: Needle
Compound: CCCCN(CCCC)C(=O)CN1C[C@H](c2ccc3c(c2)OCO3)[C@@H](C(=O)O)[C@@H]1c1ccc(OC)cc1 [Parent, Quarter-hydrate, (2R,3R,4S)-4-(1,3-benzodioxol-5-yl)-1-[2-(dibutylamino)-2-oxoethyl]-2-(4-methoxyphenyl)pyaolidine-3-carboxylic acid]

- CRYSTAL MORPHOLOGY [1]: Prism
Compound: CCCCN(CCCC)C(=O)CN1CC(c2ccc3c(c2)OCO3)C(C(=O)O)C1c1ccc(OC)cc1.CCCCN(CCCC)C(=O)CN1CC(c2ccc3c(c2)OCO3)C(C(=O)O)C1c1ccc(OC)cc1.O=C(O)C(O)c1ccccc1 (stereo not drawn) [S-Mandelate (2:1 Stoichiometry), Hydrate]

- CRYSTAL MORPHOLOGY [1]: Needle
Compound: CCCCN(CCCC)C(=O)CN1CC(c2ccc3c(c2)OCO3)C(C(=O)O)C1c1ccc(OC)cc1.O.O=S(=O)(O)O (stereo not drawn)
- solid form change during moisture sorption isotherm [2]: partial conversion from the hydrate form to the anhydrate form

- PARTICLE SIZE DISTRIBUTION D10 [3]: 6.0 μm
- PARTICLE SIZE DISTRIBUTION D50 [3]: 20 μm
- PARTICLE SIZE DISTRIBUTION D90 [3]: 86 μm
- MORPHOLOGY [3]: Needle
- CRYSTAL MORPHOLOGY ([1]; listed as Hydrochloride (1:1 Stoichiometry), Crystalline Form II): Needle
- IDR (intrinsic dissolution rate) ([4]; [Cl−] 0.0 M): 1.4 × 10^−1 (n = 1) mg/min/cm^2
- IDR (intrinsic dissolution rate) ([4]; [Cl−] 0.017 M): 1.3 × 10^−1 (n = 1) mg/min/cm^2
- IDR (intrinsic dissolution rate) ([4]; [Cl−] 0.17 M): 4.2 × 10^−2 (n = 1) mg/min/cm^2
- linear regression intercept a of IDR = a + b × [Cl−] [4]: a2 = 0.1377
- linear regression slope b of IDR = a + b × [Cl−] [4]: b2 = −0.5609
- RECOVERED (%) [5]: 87.62% and 87.21% and 83.11%
- AVERAGE (%) recovered [5]: 85.98%
- AVERAGE % (NORMALIZED) [5]: 89.48%
- BULK DENSITY [6]: 0.11 g/mL
- TAP DENSITY [6]: 0.20 g/mL
Compound: CCCCN(CCCC)C(=O)CN1C[C@H](c2ccc3c(c2)OCO3)[C@@H](C(=O)O)[C@@H]1c1ccc(OC)cc1 [Hydrochloride]

- IDR (intrinsic dissolution rate) ([7]; pH 2.0 phosphate buffer): 2.7 × 10^−2 (n = 1) mg/min/cm^2
- IDR (intrinsic dissolution rate) ([7]; pH 7.4 phosphate buffer): 3.6 × 10^−2 (n = 1) mg/min/cm^2
- CRYSTAL MORPHOLOGY ([1]; Hemi-hydrate): Prism
- RECOVERED (%) [5]: 93.76% and 91.62% and 89.37%
- AVERAGE (%) recovered [5]: 91.58%
- AVERAGE % (NORMALIZED) [5]: 89.56%
Compound: CCCCN(CCCC)C(=O)CN1C[C@H](c2ccc3c(c2)OCO3)[C@@H](C(=O)O)[C@@H]1c1ccc(OC)cc1 [Parent, (2R,3R,4S)-4-(1,3-benzodioxol-5-yl)-1-[2-(dibutylamino)-2-oxoethyl]-2-(4-methoxyphenyl)pyaolidine-3-carboxylic acid]
- IDR (intrinsic dissolution rate) ([7]; pH 5.0 phosphate buffer): 5.1 × 10^−3 mg/min/cm^2 and 5.4 × 10^−3 mg/min/cm^2

- CRYSTAL MORPHOLOGY [1]: Needle
Compound: CCCCN(CCCC)C(=O)CN1C[C@H](c2ccc3c(c2)OCO3)[C@@H](C(=O)O)[C@@H]1c1ccc(OC)cc1.Cl
